Results: ChEMBL document CHEMBL4765228, “Indole-like Trk receptor antagonists” (Eur J Med Chem, 2016)
Values after ≈ are worked out from the molar mass of the structure shown. Active and inactive are the calls of the source. The calls are words filed in the database; no cut-off is given here.

Key:
[1] = biological target: High affinity nerve growth factor receptor (Rattus norvegicus) (UniProt P35739); assay: Inhibition of TrkA phosphorylation in rat PC12 cells at 1 uM after 5 mins in presence of NGF by Western blot analysis; assay type: cell-based; conditions: PC-12
[2] = biological target: BDNF/NT-3 growth factors receptor (Mus musculus) (UniProt P15209); assay: Inhibition of TrkB phosphorylation in mouse MG87 cells transfected with pFA2-Elk plasmid and pFR-luciferase plasmid at 1 uM after 5 mins in presence of BDNF by Western blot analysis; assay type: cell-based
[3] = biological target: High affinity nerve growth factor receptor (Rattus norvegicus) (UniProt P35739); assay: Inhibition of TrkA in rat PC-12 cells assessed as reduction in Akt phosphorylation at 0.01 to 1 uM after 5 mins in presence of NGF by Western blot analysis; assay type: cell-based; conditions: dose 0.01-1 µM
[4] = biological target: BDNF/NT-3 growth factors receptor (Mus musculus) (UniProt P15209); assay: Inhibition of TrkB in mouse MG87 cells transfected with pFA2-Elk plasmid and pFR-luciferase plasmid assessed as reduction in Akt phosphorylation at 0.01 to 1 uM after 5 mins in presence of BDNF by Western blot analysis; assay type: cell-based; conditions: dose 0.01-1 µM
[5] = biological target: High affinity nerve growth factor receptor (Rattus norvegicus) (UniProt P35739); assay: Inhibition of TrkA in rat PC12 cells assessed as reduction in ERK1/ERK2 phosphorylation at 0.01 to 1 uM after 5 mins in presence of NGF by Western blot analysis; assay type: cell-based; conditions: PC-12, dose 0.01-1 µM
[6] = biological target: BDNF/NT-3 growth factors receptor (Mus musculus) (UniProt P15209); assay: Inhibition of TrkB in mouse MG87 cells transfected with pFA2-Elk plasmid and pFR-luciferase plasmid assessed as reduction in ERK1/ERK2 phosphorylation at 0.01 to 1 uM after 5 mins in presence of BDNF by Western blot analysis; assay type: cell-based; conditions: dose 0.01-1 µM
MG87 = assay: Cytotoxicity against mouse MG87 cells transfected with pFA2-Elk plasmid and pFR-luciferase plasmid assessed as cellular ATP content at 0.01 to 1 uM after 24 hrs by CellTiter-Glo luminescent analysis; assay type: functional, cell-based; conditions: dose 0.01-1 µM
[7] = biological target: Ephrin type-A receptor 2 (Homo sapiens) (UniProt P29317); assay: Inhibition of human EPHA2 assessed as residual activity at 1 uM relative to control
[8] = biological target: Serine/threonine-protein kinase pim-1 (Homo sapiens) (UniProt P11309); assay: Inhibition of human PIM1 assessed as residual activity at 1 uM relative to control
[9] = biological target: T1, Serine/threonine-protein kinase Sgk1 (Homo sapiens) (UniProt O00141); assay: Inhibition of human SGK1 assessed as residual activity at 0.1 uM relative to control
T1 sequence (whole entry): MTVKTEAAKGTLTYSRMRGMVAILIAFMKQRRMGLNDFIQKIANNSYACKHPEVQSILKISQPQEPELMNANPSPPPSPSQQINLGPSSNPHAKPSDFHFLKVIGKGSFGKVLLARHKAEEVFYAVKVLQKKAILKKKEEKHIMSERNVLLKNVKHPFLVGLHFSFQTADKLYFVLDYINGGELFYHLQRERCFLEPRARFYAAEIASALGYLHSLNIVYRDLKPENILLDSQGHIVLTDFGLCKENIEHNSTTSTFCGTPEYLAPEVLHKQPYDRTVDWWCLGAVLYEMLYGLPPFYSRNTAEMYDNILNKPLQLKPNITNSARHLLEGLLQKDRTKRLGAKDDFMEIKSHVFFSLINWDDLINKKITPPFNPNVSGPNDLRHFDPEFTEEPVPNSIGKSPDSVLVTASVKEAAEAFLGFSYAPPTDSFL

[10] = biological target: T2, Dual specificity protein kinase TTK (Homo sapiens) (UniProt P33981); assay: Inhibition of human TTK assessed as residual activity at 1 uM relative to control
T2 sequence (whole entry): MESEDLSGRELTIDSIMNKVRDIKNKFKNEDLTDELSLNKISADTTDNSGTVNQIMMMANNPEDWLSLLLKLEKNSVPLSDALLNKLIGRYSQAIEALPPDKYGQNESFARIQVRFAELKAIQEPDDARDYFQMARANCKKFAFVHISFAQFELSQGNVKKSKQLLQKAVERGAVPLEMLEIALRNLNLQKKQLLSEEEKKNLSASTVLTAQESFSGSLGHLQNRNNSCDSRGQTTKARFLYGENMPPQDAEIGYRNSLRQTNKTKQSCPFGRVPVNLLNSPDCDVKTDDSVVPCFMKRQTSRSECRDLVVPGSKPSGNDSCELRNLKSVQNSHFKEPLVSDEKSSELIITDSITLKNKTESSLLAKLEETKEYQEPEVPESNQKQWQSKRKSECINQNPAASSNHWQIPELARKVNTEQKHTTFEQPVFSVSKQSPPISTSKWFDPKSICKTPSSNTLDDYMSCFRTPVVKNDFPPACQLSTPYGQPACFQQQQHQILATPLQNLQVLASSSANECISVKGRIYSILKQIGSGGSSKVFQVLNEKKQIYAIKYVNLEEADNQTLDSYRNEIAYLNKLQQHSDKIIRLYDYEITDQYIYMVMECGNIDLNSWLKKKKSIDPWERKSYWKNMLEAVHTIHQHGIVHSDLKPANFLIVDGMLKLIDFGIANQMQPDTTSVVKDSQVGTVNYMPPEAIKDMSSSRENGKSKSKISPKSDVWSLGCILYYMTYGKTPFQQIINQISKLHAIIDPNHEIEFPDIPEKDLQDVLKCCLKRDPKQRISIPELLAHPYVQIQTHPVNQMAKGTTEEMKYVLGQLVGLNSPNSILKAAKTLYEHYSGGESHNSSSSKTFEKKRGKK

[11] = biological target: T3, High affinity nerve growth factor receptor (Homo sapiens, UniProt P04629); assay: Inhibition of GAL4 fused TrkA (unknown origin) expressed in PC12 cells transfected with pFA2-Elk plasmid and pFR-luciferase plasmid measured for 18 hrs by luciferase reporter gene assay; assay type: cell-based, Rattus norvegicus, PC-12
[12] = biological target: T3, High affinity nerve growth factor receptor; assay: Inhibition of TrkA (unknown origin)
[13] = biological target: T4, BDNF/NT-3 growth factors receptor (Homo sapiens, UniProt Q16620); assay: Inhibition of TrkB (unknown origin)
[14] = biological target: NT-3 growth factor receptor (Homo sapiens, UniProt Q16288); assay: Inhibition of TrkC (unknown origin)
[15] = biological target: Tyrosine-protein kinase SYK (Homo sapiens) (UniProt P43405); assay: Inhibition of human SYK (1 to 635 residues) assessed as residual activity at 0.1 uM relative to control
[16] = biological target: Tyrosine-protein kinase SYK (Homo sapiens) (UniProt P43405); assay: Inhibition of human SYK (1 to 635 residues) assessed as residual activity at 1 uM relative to control
[17] = biological target: T4, BDNF/NT-3 growth factors receptor; assay: Inhibition of GAL4 fused TrkB (unknown origin) expressed in MG87 cells transfected with pFA2-Elk plasmid and pFR-luciferase plasmid measured for 18 hrs by luciferase reporter gene assay; assay type: cell-based
[18] = Aqueous solubility of the compound […] incubated for 60 min by RP-HPLC-DAD analysis; assay type: physicochemical
Cortical neurone = assay: Cytotoxicity against Wistar rat cortical neuron assessed as neuron survival at 0.01 to 1 uM incubated for 24 hrs; assay type: cell-based; conditions: dose 0.01-1 µM

Serine/threonine-protein kinase pim-1 (Homo sapiens), sequence (P11309 whole entry, looked up): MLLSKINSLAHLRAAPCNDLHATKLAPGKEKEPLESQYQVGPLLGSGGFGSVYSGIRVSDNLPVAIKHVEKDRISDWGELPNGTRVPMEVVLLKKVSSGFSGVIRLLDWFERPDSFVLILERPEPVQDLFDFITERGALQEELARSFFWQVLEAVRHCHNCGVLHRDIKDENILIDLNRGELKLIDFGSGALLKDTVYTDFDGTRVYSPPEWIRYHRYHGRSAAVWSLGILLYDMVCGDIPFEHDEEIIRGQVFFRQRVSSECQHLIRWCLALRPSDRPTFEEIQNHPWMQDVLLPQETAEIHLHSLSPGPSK
BDNF/NT-3 growth factors receptor (Mus musculus), sequence (P15209 whole entry): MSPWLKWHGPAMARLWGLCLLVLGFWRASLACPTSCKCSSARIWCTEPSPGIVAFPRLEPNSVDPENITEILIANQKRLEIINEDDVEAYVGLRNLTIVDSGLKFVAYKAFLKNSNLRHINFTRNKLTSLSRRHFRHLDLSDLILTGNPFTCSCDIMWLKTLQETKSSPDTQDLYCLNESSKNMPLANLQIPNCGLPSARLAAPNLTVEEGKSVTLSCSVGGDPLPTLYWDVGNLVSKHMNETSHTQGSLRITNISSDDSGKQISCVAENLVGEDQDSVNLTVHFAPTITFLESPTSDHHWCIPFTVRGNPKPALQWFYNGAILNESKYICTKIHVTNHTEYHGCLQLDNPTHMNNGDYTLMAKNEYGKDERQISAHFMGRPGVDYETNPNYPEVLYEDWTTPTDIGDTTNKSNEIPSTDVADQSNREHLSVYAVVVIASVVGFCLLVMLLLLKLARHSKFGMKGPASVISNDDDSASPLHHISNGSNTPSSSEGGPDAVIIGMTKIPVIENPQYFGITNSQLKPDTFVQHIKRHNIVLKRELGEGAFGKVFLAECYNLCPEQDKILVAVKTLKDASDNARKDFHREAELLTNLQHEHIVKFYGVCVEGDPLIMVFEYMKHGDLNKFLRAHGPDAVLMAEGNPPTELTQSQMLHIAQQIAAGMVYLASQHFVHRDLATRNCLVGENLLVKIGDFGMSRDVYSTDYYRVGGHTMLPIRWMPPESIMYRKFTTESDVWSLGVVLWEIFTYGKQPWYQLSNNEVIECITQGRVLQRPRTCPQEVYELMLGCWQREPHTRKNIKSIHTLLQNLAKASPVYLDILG
High affinity nerve growth factor receptor (Rattus norvegicus), sequence (P35739 whole entry): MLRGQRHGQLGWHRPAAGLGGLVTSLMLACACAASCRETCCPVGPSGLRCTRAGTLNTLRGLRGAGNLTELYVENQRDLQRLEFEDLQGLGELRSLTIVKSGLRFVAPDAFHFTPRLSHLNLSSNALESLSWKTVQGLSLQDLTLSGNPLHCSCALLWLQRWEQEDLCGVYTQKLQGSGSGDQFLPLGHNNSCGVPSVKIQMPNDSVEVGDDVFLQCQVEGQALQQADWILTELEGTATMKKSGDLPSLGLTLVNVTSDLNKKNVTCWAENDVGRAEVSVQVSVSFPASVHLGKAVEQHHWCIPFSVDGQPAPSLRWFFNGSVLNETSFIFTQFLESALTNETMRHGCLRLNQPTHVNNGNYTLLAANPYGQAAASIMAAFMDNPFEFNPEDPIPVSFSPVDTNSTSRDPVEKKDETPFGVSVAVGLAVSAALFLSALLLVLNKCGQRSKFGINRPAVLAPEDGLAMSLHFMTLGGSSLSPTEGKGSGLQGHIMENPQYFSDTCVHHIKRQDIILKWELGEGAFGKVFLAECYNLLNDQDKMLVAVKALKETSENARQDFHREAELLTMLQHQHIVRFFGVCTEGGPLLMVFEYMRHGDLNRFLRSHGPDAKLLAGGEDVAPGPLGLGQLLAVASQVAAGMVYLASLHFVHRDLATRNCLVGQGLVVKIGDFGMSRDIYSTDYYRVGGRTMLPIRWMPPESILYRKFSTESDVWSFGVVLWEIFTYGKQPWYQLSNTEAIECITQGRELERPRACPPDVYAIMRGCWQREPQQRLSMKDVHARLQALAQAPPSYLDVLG
T3 sequence (P04629 whole entry, the tested form may be a part): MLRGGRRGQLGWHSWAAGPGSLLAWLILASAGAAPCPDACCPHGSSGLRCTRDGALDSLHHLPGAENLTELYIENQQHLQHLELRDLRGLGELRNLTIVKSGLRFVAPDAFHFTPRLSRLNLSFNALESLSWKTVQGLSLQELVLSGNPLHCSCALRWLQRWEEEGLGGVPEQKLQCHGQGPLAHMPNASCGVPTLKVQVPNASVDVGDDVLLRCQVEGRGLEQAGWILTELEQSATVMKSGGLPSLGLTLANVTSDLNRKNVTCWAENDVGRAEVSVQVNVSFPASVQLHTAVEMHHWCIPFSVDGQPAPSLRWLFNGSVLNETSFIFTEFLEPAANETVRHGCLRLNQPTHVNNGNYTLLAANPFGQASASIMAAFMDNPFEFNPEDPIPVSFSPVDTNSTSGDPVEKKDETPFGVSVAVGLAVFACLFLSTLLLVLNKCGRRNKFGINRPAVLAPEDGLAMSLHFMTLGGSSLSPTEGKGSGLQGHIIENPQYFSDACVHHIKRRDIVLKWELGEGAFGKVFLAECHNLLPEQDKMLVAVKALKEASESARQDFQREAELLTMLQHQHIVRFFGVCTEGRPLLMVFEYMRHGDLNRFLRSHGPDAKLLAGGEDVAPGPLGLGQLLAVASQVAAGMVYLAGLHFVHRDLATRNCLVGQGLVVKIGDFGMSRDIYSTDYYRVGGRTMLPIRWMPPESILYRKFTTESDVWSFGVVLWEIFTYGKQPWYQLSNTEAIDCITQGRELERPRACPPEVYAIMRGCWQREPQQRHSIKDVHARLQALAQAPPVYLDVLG
Ephrin type-A receptor 2 (Homo sapiens), sequence (P29317 whole entry): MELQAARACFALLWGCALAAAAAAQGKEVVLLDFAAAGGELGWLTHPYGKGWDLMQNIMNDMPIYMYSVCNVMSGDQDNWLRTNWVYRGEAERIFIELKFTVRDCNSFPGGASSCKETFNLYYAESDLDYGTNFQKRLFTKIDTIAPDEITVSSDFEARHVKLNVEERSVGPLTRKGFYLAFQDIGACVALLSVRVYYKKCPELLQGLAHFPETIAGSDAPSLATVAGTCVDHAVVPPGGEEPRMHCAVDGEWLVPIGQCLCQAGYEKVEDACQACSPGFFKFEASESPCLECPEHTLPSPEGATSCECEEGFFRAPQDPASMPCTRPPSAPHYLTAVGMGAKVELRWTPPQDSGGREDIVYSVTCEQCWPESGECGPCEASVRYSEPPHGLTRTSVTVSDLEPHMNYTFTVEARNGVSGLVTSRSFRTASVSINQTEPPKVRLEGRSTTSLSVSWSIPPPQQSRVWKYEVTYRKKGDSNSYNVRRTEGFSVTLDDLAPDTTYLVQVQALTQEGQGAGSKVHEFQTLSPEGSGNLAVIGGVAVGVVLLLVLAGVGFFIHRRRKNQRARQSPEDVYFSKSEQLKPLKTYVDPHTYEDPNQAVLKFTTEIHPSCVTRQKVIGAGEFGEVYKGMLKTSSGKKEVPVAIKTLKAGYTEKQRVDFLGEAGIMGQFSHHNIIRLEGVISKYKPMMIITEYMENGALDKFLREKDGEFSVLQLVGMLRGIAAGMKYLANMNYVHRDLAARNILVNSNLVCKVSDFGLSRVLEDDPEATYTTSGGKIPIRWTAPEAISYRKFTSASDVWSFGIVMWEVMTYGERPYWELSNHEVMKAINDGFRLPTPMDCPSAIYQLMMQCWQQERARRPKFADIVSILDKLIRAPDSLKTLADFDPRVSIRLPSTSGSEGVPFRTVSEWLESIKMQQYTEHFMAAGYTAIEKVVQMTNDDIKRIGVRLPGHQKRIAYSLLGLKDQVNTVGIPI
T4 sequence (Q16620 whole entry): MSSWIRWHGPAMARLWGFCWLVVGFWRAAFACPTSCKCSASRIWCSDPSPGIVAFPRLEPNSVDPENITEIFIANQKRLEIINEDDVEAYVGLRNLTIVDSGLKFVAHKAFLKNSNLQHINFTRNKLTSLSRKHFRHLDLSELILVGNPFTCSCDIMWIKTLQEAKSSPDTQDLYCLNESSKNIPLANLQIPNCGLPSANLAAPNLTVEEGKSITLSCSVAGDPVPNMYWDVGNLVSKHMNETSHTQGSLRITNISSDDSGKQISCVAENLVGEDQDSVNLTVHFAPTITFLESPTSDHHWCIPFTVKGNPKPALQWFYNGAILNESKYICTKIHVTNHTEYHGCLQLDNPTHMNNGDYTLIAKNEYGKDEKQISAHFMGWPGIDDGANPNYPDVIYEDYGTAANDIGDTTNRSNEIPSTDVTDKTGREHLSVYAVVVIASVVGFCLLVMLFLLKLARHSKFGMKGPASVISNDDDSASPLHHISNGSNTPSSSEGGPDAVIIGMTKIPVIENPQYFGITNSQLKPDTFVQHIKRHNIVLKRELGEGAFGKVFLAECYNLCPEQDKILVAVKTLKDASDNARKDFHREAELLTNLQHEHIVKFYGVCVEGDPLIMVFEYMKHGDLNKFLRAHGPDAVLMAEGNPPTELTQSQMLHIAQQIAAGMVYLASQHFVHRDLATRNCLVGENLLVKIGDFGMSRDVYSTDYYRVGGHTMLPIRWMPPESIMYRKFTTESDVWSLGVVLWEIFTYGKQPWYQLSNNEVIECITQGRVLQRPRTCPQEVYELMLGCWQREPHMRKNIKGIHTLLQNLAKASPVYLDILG

Row | SMILES | inhibition [1] | inhibition [2] | inhibition [3] | inhibition [4] | inhibition [5] | inhibition [6] | Activity [7] [%] | Activity [8] [%] | Activity [9] [%] | Activity [10] [%] | IC50 [11] [nM] | IC50 [12] [nM] | IC50 [13] [nM] | IC50 [14] [nM] | Activity [15] [%] | Activity [16] [%] | IC50 [17] [nM] | solubility at 1 h [18] [µM] | Activity (MG87) | Activity (Cortical neurone)
1 | COc1ccc2[nH]cc(/C=C3\C(=O)Nc4ccc(S(N)(=O)=O)cc43)c2c1 |  |  |  |  |  |  | 98 | 79 | 85 | 80 | 103 | 8.49 | 8.53 | 8.82 | 86 | 35 |  |  |  | 
2 | COc1ccc2c(c1)c(/C=C1\C(=O)Nc3ccc(S(=O)(=O)N(C)C)cc31)cn2C | Active | Active | Active | Active | Active | Active | 89 | 97 | 90 | 106 | 46 | 10.1 | 15.2 | 11.7 | 102 | 91 | 142 | 7.8 (≈ 3.21 µg/mL) | inactive | Non-Toxic
3 | CN(C)S(=O)(=O)c1ccc2c(c1)/C(=C/c1cn(C)c3ccc(O)cc13)C(=O)N2 |  |  |  |  |  |  | 98 | 95 | 87 | 96 | 92.8 | 9.17 | 13.5 | 9.72 | 107 | 91 |  |  |  | 
4 | Cn1cc(/C=C2\C(=O)Nc3ccc(S(N)(=O)=O)cc32)c2ccccc21 |  |  |  |  |  |  | 90 | 93 | 81 | 85 | 36.7 | 4.17 | 7.62 | 6.86 | 69 | 47 |  |  |  | 

Further lines, with some results ahead:

Row | inhibition [1] | inhibition [2] | inhibition [3] | inhibition [4] | inhibition [5] | inhibition [6] | Activity [7] [%] | Activity [8] [%] | Activity [9] [%] | Activity [10] [%] | IC50 [11] [nM] | IC50 [12] [nM] | IC50 [13] [nM] | IC50 [14] [nM] | Activity [15] [%] | Activity [16] [%] | IC50 [17] [nM] | solubility at 1 h [18] [µM] | SMILES | Activity (MG87) | Activity (Cortical neurone)
5 | Active | Active | Active | Active | Active | Active | 84 | 88 | 94 | 86 |  |  |  |  |  |  |  |  | CNS(=O)(=O)c1ccc2c(c1)/C(=C/c1cn(C)c3ccc(OC)cc13)C(=O)N2 | inactive | 
6 | Active | Active | Active | Active | Active | Active | 89 | 88 | 80 | 96 |  |  |  |  |  |  |  |  | COc1ccc2c(c1)c(/C=C1\C(=O)Nc3ccc(S(N)(=O)=O)cc31)cn2C | inactive | 
